Measured values as given in paper PMC10175918 (Communications Biology, 2023).
Where two headings read alike, the source gives them in different places.

What was measured:
Assay in all cases: TGFα-shedding assay-based GPCR screening with chimeric Gα subunit proteins
Assay type in all cases: cell-based
[1] = target: T1, 348 GPCRs (Homo sapiens, UniProt P30542); settings: 10µM, Favipiravir 100μM
T1 sequence (P30542 1-326): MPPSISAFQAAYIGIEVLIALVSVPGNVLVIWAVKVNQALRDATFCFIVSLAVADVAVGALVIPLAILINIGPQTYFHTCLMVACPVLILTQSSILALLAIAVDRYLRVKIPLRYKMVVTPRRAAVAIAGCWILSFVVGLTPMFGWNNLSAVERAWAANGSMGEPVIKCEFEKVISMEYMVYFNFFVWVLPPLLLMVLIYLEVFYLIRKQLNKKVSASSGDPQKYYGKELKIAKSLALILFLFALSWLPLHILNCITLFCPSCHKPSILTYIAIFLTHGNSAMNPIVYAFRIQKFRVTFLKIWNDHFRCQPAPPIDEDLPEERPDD

[2] = target: T2, 348 GPCRs (Homo sapiens, UniProt P08912)
T2 construct: expressed in transfected cells; host or cells: HEK293A
T2 sequence (P08912 1-532): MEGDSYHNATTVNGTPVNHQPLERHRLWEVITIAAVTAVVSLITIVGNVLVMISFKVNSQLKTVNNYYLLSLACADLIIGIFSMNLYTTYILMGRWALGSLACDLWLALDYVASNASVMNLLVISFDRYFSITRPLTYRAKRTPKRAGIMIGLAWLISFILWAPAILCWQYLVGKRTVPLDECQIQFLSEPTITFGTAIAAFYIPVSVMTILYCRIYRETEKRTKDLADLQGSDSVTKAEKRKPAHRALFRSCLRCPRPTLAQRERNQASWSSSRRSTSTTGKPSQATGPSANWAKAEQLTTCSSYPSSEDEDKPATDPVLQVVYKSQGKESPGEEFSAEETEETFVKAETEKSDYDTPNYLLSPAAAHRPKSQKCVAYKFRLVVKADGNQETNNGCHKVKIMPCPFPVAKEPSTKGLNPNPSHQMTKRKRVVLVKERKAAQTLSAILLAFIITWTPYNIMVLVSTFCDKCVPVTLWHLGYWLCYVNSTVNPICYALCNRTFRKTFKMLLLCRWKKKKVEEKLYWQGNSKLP

[3] = target: T3, 348 GPCRs (Homo sapiens, UniProt Q969F8); settings: 10µM, Favipiravir 100μM
T3 construct: expressed in transfected cells; host or cells: HEK293A

[4] = target: T4, 348 GPCRs (Homo sapiens, UniProt Q8NFJ6); settings: 10µM, Favipiravir 100μM
T4 construct: expressed in transfected cells; host or cells: HEK293A

[5] = target: T5, 348 GPCRs (Homo sapiens, UniProt Q96LB1); settings: 10µM, Favipiravir 100μM
T5 construct: expressed in transfected cells; host or cells: HEK293A
T5 sequence (Q96LB1 1-330): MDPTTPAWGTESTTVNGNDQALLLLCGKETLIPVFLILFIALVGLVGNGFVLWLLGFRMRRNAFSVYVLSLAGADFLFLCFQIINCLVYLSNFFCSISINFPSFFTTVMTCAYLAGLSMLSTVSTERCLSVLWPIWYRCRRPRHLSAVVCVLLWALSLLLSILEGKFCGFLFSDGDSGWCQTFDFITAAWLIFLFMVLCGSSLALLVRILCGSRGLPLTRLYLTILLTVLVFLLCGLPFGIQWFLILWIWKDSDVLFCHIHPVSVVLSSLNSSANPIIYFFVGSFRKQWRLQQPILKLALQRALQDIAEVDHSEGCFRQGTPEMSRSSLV

[6] = target: T6, 348 GPCRs (Homo sapiens, UniProt P08172)
T6 sequence (P08172 1-466): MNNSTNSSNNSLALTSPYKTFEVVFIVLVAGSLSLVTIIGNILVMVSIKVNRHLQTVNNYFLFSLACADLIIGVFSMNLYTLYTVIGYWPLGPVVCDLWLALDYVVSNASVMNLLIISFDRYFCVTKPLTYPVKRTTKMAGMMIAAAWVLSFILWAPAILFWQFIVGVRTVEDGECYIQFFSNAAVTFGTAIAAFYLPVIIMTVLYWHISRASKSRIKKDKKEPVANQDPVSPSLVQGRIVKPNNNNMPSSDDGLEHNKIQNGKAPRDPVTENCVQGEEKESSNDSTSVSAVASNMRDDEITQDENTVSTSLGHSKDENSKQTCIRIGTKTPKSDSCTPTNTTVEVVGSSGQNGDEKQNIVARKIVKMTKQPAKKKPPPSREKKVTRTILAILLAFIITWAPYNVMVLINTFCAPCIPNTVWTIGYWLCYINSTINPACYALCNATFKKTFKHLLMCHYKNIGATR

[7] = target: T7, 348 GPCRs (Homo sapiens, UniProt P13945); settings: 10µM, Favipiravir 100μM
T7 construct: expressed in transfected cells; host or cells: HEK293A

[8] = target: T8, 348 GPCRs (Homo sapiens, UniProt P29275); settings: 10µM, Favipiravir 100μM
T8 construct: expressed in transfected cells; host or cells: HEK293A
T8 sequence (P29275 1-332): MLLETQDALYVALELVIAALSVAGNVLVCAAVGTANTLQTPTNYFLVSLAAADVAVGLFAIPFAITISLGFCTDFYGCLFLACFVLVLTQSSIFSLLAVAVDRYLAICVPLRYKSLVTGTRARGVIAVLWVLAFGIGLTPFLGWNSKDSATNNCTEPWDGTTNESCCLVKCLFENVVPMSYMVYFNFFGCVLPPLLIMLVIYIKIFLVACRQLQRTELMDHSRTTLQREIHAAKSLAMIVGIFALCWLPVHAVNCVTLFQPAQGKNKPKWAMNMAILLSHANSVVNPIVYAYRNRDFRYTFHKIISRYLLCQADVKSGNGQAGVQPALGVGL

[9] = ADORA1 (adenosine A1 receptor), read-out: % GPCR activation compared to TPA
[10] = GPCR M5 (Muscarinic acetylcholine receptor M5), read-out: % GPCR activation compared to TPA
[11] = KISSPEPTIN-R (KISS1 Receptor), read-out: % GPCR activation compared to TPA
[12] = PK2 (prokineticin receptor 2), read-out: % GPCR activation compared to TPA
[13] = PROKR2 (prokineticin receptor 2), read-out: % GPCR activation compared to TPA
[14] = MRGPRX2 (MAS-related GPR, member X2), read-out: % GPCR activation compared to TPA
[15] = GPCR M2 (Muscarinic acetylcholine receptor M2), read-out: % GPCR activation compared to TPA
[16] = ADRB3 (adrenoceptor beta 3), read-out: % GPCR activation compared to TPA
[17] = ADORA2B (adenosine A2b receptor), read-out: % GPCR activation compared to TPA
[18] = read-out: % GPCR activation compared to TPA, ADORA1 (adenosine A1 receptor)
[19] = read-out: % GPCR activation compared to TPA, GPCR M5 (Muscarinic acetylcholine receptor M5)
[20] = read-out: % GPCR activation compared to TPA, KISSPEPTIN-R (KISS1 Receptor)
[21] = read-out: % GPCR activation compared to TPA, PK2 (prokineticin receptor 2)
[22] = read-out: % GPCR activation compared to TPA, PROKR2 (prokineticin receptor 2)
[23] = read-out: % GPCR activation compared to TPA, MRGPRX2 (MAS-related GPR, member X2)
[24] = read-out: % GPCR activation compared to TPA, GPCR M2 (Muscarinic acetylcholine receptor M2)
[25] = read-out: % GPCR activation compared to TPA, ADRB3 (adrenoceptor beta 3)
[26] = read-out: % GPCR activation compared to TPA, ADORA2B (adenosine A2b receptor)

T4 sequence (Q8NFJ6 whole entry): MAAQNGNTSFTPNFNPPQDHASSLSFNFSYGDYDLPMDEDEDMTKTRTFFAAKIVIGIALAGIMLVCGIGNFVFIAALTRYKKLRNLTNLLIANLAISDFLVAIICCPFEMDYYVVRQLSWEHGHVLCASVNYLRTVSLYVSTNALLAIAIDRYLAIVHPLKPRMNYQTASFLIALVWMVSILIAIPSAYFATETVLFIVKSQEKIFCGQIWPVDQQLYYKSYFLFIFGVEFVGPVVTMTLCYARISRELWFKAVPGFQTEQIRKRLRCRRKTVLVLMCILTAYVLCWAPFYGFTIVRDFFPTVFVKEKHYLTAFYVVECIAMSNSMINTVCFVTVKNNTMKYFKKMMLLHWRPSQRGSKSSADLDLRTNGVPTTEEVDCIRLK
T3 sequence (Q969F8 whole entry): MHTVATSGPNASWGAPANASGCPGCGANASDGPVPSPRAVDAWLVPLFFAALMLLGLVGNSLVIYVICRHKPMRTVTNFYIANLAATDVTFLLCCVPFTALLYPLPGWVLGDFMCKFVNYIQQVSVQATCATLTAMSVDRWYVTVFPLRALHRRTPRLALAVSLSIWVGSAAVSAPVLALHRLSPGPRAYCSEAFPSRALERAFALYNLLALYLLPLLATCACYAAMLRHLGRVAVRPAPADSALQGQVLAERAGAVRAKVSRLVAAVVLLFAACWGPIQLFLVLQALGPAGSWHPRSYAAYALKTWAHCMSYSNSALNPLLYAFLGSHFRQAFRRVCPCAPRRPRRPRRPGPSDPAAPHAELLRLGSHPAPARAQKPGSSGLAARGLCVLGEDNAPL
T7 sequence (P13945 whole entry): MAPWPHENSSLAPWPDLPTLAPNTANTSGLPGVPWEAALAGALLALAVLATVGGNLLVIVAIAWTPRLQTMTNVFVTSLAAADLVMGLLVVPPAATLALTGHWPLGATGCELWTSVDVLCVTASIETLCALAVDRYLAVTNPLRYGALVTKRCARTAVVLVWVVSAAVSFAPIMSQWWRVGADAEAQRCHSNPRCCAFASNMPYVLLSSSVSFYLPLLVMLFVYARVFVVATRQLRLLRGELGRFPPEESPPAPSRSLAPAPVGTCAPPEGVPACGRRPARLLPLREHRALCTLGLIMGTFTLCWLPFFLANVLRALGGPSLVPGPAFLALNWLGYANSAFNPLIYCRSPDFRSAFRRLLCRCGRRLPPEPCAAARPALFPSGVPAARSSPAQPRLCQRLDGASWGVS

| SMILES | activation at 100 µM [1, 9] [%] | activation at 10 µM [2, 10] [%] | activation at 100 µM [3, 11] [%] | activation at 10 µM [4, 12] [%] | activation at 100 µM [4, 13] [%] | activation at 100 µM [5, 14] [%] | activation at 10 µM [6, 15] [%] | activation at 10 µM [7, 16] [%] | activation at 10 µM [8, 17] [%] | activation at 100 µM ([2]; GPCR M5 (Muscarinic acetylcholine receptor M5), 100μM, read-out: % GPCR activation compared to TPA) [%] | activation at 100 µM ([6]; GPCR M2 (Muscarinic acetylcholine receptor M2), 100μM, read-out: % GPCR activation compared to TPA) [%] | activation at 100 µM [1, 18] [%] | activation at 10 µM [2, 19] [%] | activation at 100 µM [3, 20] [%] | activation at 10 µM [4, 21] [%] | activation at 100 µM [4, 22] [%] | activation at 100 µM [5, 23] [%] | activation at 10 µM [6, 24] [%] | activation at 10 µM [7, 25] [%] | activation at 10 µM [8, 26] [%] |
| --- | --- | --- | --- | --- | --- | --- | --- | --- | --- | --- | --- | --- | --- | --- | --- | --- | --- | --- | --- | --- |
| CCC(CC)COC(=O)[C@H](C)N[P@](=O)(OC[C@H]1O[C@@](C#N)(c2ccc3c(N)ncnn23)[C@H](O)[C@@H]1O)Oc1ccccc1 [remdesivir] | – | – | – | – | – | – | – | – | – | – | – | 3.8 | -0.595 | -1.75 | -3.23 | 0.417 | 0.19 | 6 | -0.789 | 1.79 |
| CC(C)OC(=O)[C@H](C)N[P@](=O)(OC[C@H]1O[C@@H](n2ccc(=O)[nH]c2=O)[C@](C)(F)[C@@H]1O)Oc1ccccc1 [sofosbuvir] | – | – | – | – | – | – | – | – | – | – | – | 1.9 | -1.43 | -1.38 | -0.621 | -2.61 | 0.383 | 1.35 | -0.333 | 0.00372 |

Further lines, with some results ahead:

| activation at 100 µM [1, 9] [%] | activation at 10 µM [2, 10] [%] | activation at 100 µM [3, 11] [%] | activation at 10 µM [4, 12] [%] | activation at 100 µM [4, 13] [%] | activation at 100 µM [5, 14] [%] | activation at 10 µM [6, 15] [%] | activation at 10 µM [7, 16] [%] | activation at 10 µM [8, 17] [%] | activation at 100 µM ([2]; GPCR M5 (Muscarinic acetylcholine receptor M5), 100μM, read-out: % GPCR activation compared to TPA) [%] | activation at 100 µM ([6]; GPCR M2 (Muscarinic acetylcholine receptor M2), 100μM, read-out: % GPCR activation compared to TPA) [%] | SMILES | activation at 100 µM [1, 18] [%] | activation at 10 µM [2, 19] [%] | activation at 100 µM [3, 20] [%] | activation at 10 µM [4, 21] [%] | activation at 100 µM [4, 22] [%] | activation at 100 µM [5, 23] [%] | activation at 10 µM [6, 24] [%] | activation at 10 µM [7, 25] [%] | activation at 10 µM [8, 26] [%] |
| --- | --- | --- | --- | --- | --- | --- | --- | --- | --- | --- | --- | --- | --- | --- | --- | --- | --- | --- | --- | --- |
| 0.705 | 2.9 | -2.31 | -2.39 | -1.59 | -2.44 | 4.87 | 0.201 | 1.2 | – | – | N#C[C@@]1(c2ccc3c(N)ncnn23)O[C@H](CO)[C@@H](O)[C@H]1O [GS441524] | – | – | – | – | – | – | – | – | – |
| -0.249 | – | -3.52 | -4.29 | 0.524 | -2.37 | – | -0.975 | 1.67 | 0.695 | 2.32 | NC(=O)c1nc(F)cnc1O [favipiravir, 6-fluoro-3-hydroxy-2-pyrazinecarboxamide] | – | – | – | – | – | – | – | – | – |
| -3.9 | -0.639 | -4.04 | -5.79 | -1.79 | -3.06 | 0.695 | -0.737 | -1.6 | – | – | CC(C)C(=O)OC[C@H]1O[C@@H](n2ccc(NO)nc2=O)[C@H](O)[C@@H]1O [molnupiravir] | – | – | – | – | – | – | – | – | – |
